Patent publication US12318452B2, “Degraders of WEE1 kinase” (DANA-FARBER CANCER INSTITUTE, INC., priority 2018, dated 2025)

What was measured:
[1] = system: Ikaros (IKZF1), Aiolos (IKZF3); experiment: IKZF1 and IKZF3 degradation by immunoblot in MOLT4 cells; format: cell-based
Procedure: Whole cell lysates for immunoblotting were prepared by pelleting cells from each cell line at 4° C. (300 g) for 5 minutes. The resulting cell pellets were washed 1× with ice-cold PBS and then resuspended in RIPA lysis buffer (Sigma, cat #R0278) supplemented with protease and phosphatase inhibitor tablets (Roche cat #4906845001). Lysates were clarified at 14,000 rpm for 15 minutes at 4° C. prior to quantification by BCA assay (Pierce™, cat #23225). Whole cell lysates were loaded into Bolt 4-12% Bis-Tris Gels (Thermo Fisher, cat #NW04120BOX) and separated by electrophoreses at 95 V for 1.5 hours. The gels were transferred to a nitrocellulose membrane using the iBlot® Gel Transfer at P3 for 7 minutes (Thermo Fisher, cat #IB23001) and then blocked for 1 hour at room temperature in Odyssey® blocking buffer (LICOR® Biosciences, cat #927-50010). Membranes were probed using antibodies against the relevant proteins at 4° C. overnight in 20% Odyssey® Blocking Buffer in 1×TBST. Membranes were then washed three times with 1×TBST (at least 5 minutes per wash) followed by incubation with the IRDye® goat anti-mouse (LICOR®, cat #926-32210) or goat anti-rabbit (LICOR®, cat #926-32211) secondary antibody (diluted 1:10,000) in 20% Odyssey® Blocking Buffer in 1×TBST for 1 hour at room temperature. […]

MCF10A cells = experiment: Image-based cell cycle assay in non-transformed mammary epithelial cells; details: data not shown
Procedure: (§1) HCC1806, BT549, and Kuramochi cells were maintained in RPMI (Corning®, Corning, NY) supplemented with 10% fetal bovine serum (FBS) (Life Technologies™, Carlsbad, CA) and 1% penicillin/streptomycin (Corning, Corning®, NY). OVCAR8 cells were maintained as above with the addition of 2 mM L-glutamine (Life Technologies™, Carlsbad, CA). MCF10A cells were maintained in a 1:1 mix of DMEM:F12 supplemented with 5% horse serum (Life Technologies™ Carlsbad, CA), 1% penicillin/streptomycin (Corning®, Corning, NY), 20 ng/ml EGF (Peprotech®, Rocky Hill, NJ), 500 ng/ml hydrocortisone (Sigma-Aldrich®, St. Louis, MO), 10 μg/ml insulin (Sigma-Aldrich®, St. Louis, MO), and 100 ng/ml cholera toxin (Sigma-Aldrich®, St. Louis, MO). COV362 cells were maintained in DMEM (Corning®, Corning, NY) supplemented with 10% FBS (Life Technologies™, Carlsbad, CA), 1% penicillin/streptomycin (Corning®, Corning, NY) and 2 mM L-glutamine (Life Technologies™, Carlsbad, CA). The OCE1 cells were maintained in FOMI (Wit-Fo) (PMID: 24303006) supplemented with 25 ng/ml cholera toxin (Sigma-Aldrich®, St. Louis, MO). […]
(§2) Fixed cells were imaged with a 10× objective using an Operetta microscope and analyzed using the Columbus image data storage and analysis system (PerkinElmer®, Waltham, MA). […] The average LDR, EdU and phospho-histone H3 intensities within the nuclear masks were determined. […]

BT549 and HCC1806 cells = experiment: Image-based cell cycle assay in TNBC cell lines; details: data not shown
Procedure: as §1, §2

kinome (Wee1, PLK1) = experiment: KINOMEscan profiling; format: binding; details: 1 μM

C=CCn1c(=O)c2cnc(Nc3ccc(N4CCN(CCCNc5cccc6c5C(=O)N(C5CCC(=O)NC5=O)C6=O)CC4)cc3)nc2n1-c1cccc(C(C)(C)O)n1 (centres unmarked) [Compound 13, 4-((3-(4-(4-((2-allyl-1-(6-(2-hydroxypropan-2-yl)pyridin-2-yl)-3-oxo-2,3-dihydro-1H-pyrazolo[3,4-d]pyrimidin-6-yl)amino)phenyl)piperazin-1-yl)propyl)amino)-2-(2,6-dioxopiperidin-3-yl)isoindoline-1,3-dione]
IKZF1 / IKZF3 degradation after 24 hrs ([1]; 24 hrs of drug exposure): degradation of both IKZF1 and IKZF3 was apparent | IKZF1 / IKZF3 degradation at short time points ([1]; short time points (5-hour)): no degradation of either IKZF1 or IKZF3 | Effect on mitotic cell number (MCF10A cells): very little effect | Changes in mitotic cell number (BT549 and HCC1806 cells): greater changes in mitotic cell number than AZD1775 | Kinase engagement in KINOMEscan (kinome (Wee1, PLK1)): strong engagement of both Wee1 and PLK1
